The text below walks through data of patent US20050197350A1, “Novel quinoline, tetrahydroquinazoline, and pyrimidine derivatives and methods of treatment related to the use thereof” (TAISHO PHARMACEUTICAL CO., LTD., priority 2003, published 2005).

In the assay the test system is MCH receptors. The assay is described as follows: MCH receptor activity class (method not given).
Where [1] appears, read: class by percent of control at 10^-7 M or IC50.
Setting [2] is: class 1-3 by percent of control at 10^-7 M or IC50.

With `CN(C)c1ccnc(N[C@H]2CC[C@@H](CNC(=O)c3ccc(F)c(Cl)c3F)CC2)n1` [compound 407], the class under setting [1] is given as 3 (Class 3 The value of percent of control at 10^−7 M was more than 60% or the value of IC50 was more than 200 nM.).

For `CN(C)c1ccnc(N[C@H]2CC[C@@H](CNC(=O)CSc3ccccc3)CC2)n1` [compound 408], the class under setting [1] is 3 (Class 3 The value of percent of control at 10^−7 M was more than 60% or the value of IC50 was more than 200 nM.). With `CN(C)c1ccnc(N[C@H]2CC[C@@H](CNC(=O)c3cccc(C(F)(F)F)c3F)CC2)n1` [compound 409], under setting [1], the class was 3 (Class 3 The value of percent of control at 10^−7 M was more than 60% or the value of IC50 was more than 200 nM.). For the compound `CN(C)c1ccnc(N[C@H]2CC[C@@H](CNC(=O)c3cc(C(F)(F)F)ccc3F)CC2)n1` [compound 410], under setting [1], the class is reported as 3 (Class 3 The value of percent of control at 10^−7 M was more than 60% or the value of IC50 was more than 200 nM.). Still for that read-out and setting: then `COc1cccc(CC(=O)NC[C@H]2CC[C@@H](Nc3nccc(N(C)C)n3)CC2)c1` [compound 412], with 2 (Class 2: The value of percent of control at 10^−7 M was from 40% to 60% or the value of IC′50 was from 50 nM to 200 nM.). Regarding `CN(C)c1ccnc(N[C@H]2CC[C@@H](CNC(=O)Cc3ccc(F)cc3)CC2)n1` [compound 413], the class under setting [2] was 3 (Class 3 The value of percent of control at 10^−7 M was more than 60% or the value of IC50 was more than 200 nM.). Consider `COc1ccc(CC(=O)NC[C@H]2CC[C@@H](Nc3nccc(N(C)C)n3)CC2)cc1` [compound 414, N-[(cis-4-{[4-(dimethylamino)pyrimidin-2-yl]amino}cyclohexyl)methyl]-2-(4-methoxyphenyl)acetamide], for which, under setting [2], the class is recorded as 2 (Class 2: The value of percent of control at 10^−7 M was from 40% to 60% or the value of IC′50 was from 50 nM to 200 nM.).

As for `Cc1cc(C(=O)NC[C@H]2CC[C@@H](Nc3nccc(N(C)C)n3)CC2)c(C(F)(F)F)o1` [compound 415], the class under setting [2] was 3 (Class 3 The value of percent of control at 10^−7 M was more than 60% or the value of IC50 was more than 200 nM.). Regarding `Cc1cc(C(=O)NC[C@H]2CC[C@@H](Nc3nccc(N(C)C)n3)CC2)c(C)o1` [compound 416], the class under setting [2] is 3 (Class 3 The value of percent of control at 10^−7 M was more than 60% or the value of IC50 was more than 200 nM.). In the case of `CCOc1ccccc1C(=O)NC[C@H]1CC[C@@H](Nc2nccc(N(C)C)n2)CC1` [compound 417], under setting [2], the class is 3 (Class 3 The value of percent of control at 10^−7 M was more than 60% or the value of IC50 was more than 200 nM.). Turning to `CN(C)c1ccnc(N[C@H]2CC[C@@H](CNC(=O)c3ccc(F)c(Cl)c3)CC2)n1` [compound 418], the class under setting [2] is on record as 3 (Class 3 The value of percent of control at 10^−7 M was more than 60% or the value of IC50 was more than 200 nM.). Still for that read-out and setting: next, `Cc1ccc(C(=O)NC[C@H]2CC[C@@H](Nc3nccc(N(C)C)n3)CC2)cc1F` [compound 419]: 3 (Class 3 The value of percent of control at 10^−7 M was more than 60% or the value of IC50 was more than 200 nM.).

Consider `CN(C)c1ccnc(N[C@H]2CC[C@@H](CNC(=O)CC3CCCC3)CC2)n1` [compound 420], for which, under setting [2], the class was 3 (Class 3 The value of percent of control at 10^−7 M was more than 60% or the value of IC50 was more than 200 nM.). As to `COc1cc(OC)cc(C(=O)NC[C@H]2CC[C@@H](Nc3nccc(N(C)C)n3)CC2)c1` [compound 421], the class under setting [2] was 3 (Class 3 The value of percent of control at 10^−7 M was more than 60% or the value of IC50 was more than 200 nM.). Take `CN(C)c1ccnc(N[C@H]2CC[C@@H](CNC(=O)c3ccc(C#N)cc3)CC2)n1` [compound 422]: under setting [2], the class is 3 (Class 3 The value of percent of control at 10^−7 M was more than 60% or the value of IC50 was more than 200 nM.). For `CN(C)c1ccnc(N[C@H]2CC[C@@H](CNC(=O)c3cc(C(F)(F)F)cc(C(F)(F)F)c3)CC2)n1` [compound 423, N-[(cis-4-{[4-(dimethylamino)pyrimidin-2-yl]amino}cyclohexyl)methyl]-3,5-bis(trifluoromethyl)benzamide], the class under setting [2] is reported as 2 (Class 2: The value of percent of control at 10^−7 M was from 40% to 60% or the value of IC′50 was from 50 nM to 200 nM.). Regarding `CN(C)c1ccnc(N[C@H]2CC[C@@H](CNC(=O)/C=C/c3ccc([N+](=O)[O-])cc3)CC2)n1` [compound 424], the class under setting [2] is recorded as 1 (Class 1: The value of percent of control at 10^−7 M was less than 40% or the value of IC50 was less than 50 nM.). On the same count and under the same terms, next, `CN(C)c1ccnc(N[C@H]2CC[C@@H](CNC(=O)Cc3ccccc3Br)CC2)n1` [compound 425]: 2 (Class 2: The value of percent of control at 10^−7 M was from 40% to 60% or the value of IC′50 was from 50 nM to 200 nM.). For the compound `Cc1cc(C(=O)NC[C@H]2CC[C@@H](Nc3nccc(N(C)C)n3)CC2)ccc1F` [compound 426], the class under setting [2] is 3 (Class 3 The value of percent of control at 10^−7 M was more than 60% or the value of IC50 was more than 200 nM.). For `CN(C)c1ccnc(N[C@H]2CC[C@@H](CNC(=O)c3ccccc3SC(F)F)CC2)n1` [compound 427], the class under setting [2] is on record as 3 (Class 3 The value of percent of control at 10^−7 M was more than 60% or the value of IC50 was more than 200 nM.). Take `CN(C)c1ccnc(N[C@H]2CC[C@@H](CNC(=O)c3cc(Cl)sc3Cl)CC2)n1` [compound 428]: the class under setting [2] is 3 (Class 3 The value of percent of control at 10^−7 M was more than 60% or the value of IC50 was more than 200 nM.). Still for that read-out and setting: then `CCCSc1ncccc1C(=O)NC[C@H]1CC[C@@H](Nc2nccc(N(C)C)n2)CC1` [compound 429], with 2 (Class 2: The value of percent of control at 10^−7 M was from 40% to 60% or the value of IC′50 was from 50 nM to 200 nM.); and `CN(C)c1ccnc(N[C@H]2CC[C@@H](CNC(=O)c3cc(C(C)(C)C)nn3Cc3ccccc3)CC2)n1` [compound 430], with 3 (Class 3 The value of percent of control at 10^−7 M was more than 60% or the value of IC50 was more than 200 nM.); and `CN(C)c1ccnc(N[C@H]2CC[C@@H](CNC(=O)c3cc(C(C)(C)C)nn3C)CC2)n1` [compound 431], with 3 (Class 3 The value of percent of control at 10^−7 M was more than 60% or the value of IC50 was more than 200 nM.). On to `C/C(=C\c1ccccc1)C(=O)NC[C@H]1CC[C@@H](Nc2nccc(N(C)C)n2)CC1` [compound 432], for which, under setting [2], the class was 3 (Class 3 The value of percent of control at 10^−7 M was more than 60% or the value of IC50 was more than 200 nM.).

`CN(C)c1ccnc(N[C@H]2CC[C@@H](CNC(=O)c3cncc(Br)c3)CC2)n1` [compound 433]: under setting [2], the class is listed as 3 (Class 3 The value of percent of control at 10^−7 M was more than 60% or the value of IC50 was more than 200 nM.). On the same count and under the same terms, then `CN(C)c1ccnc(N[C@H]2CC[C@@H](CNC(=O)Cc3cccc4ccccc34)CC2)n1` [compound 434], with 1 (Class 1: The value of percent of control at 10^−7 M was less than 40% or the value of IC50 was less than 50 nM.). On the same count and under the same terms, next, `Cc1cc(C(=O)NC[C@H]2CC[C@@H](Nc3nccc(N(C)C)n3)CC2)nn1C(C)(C)C` [compound 435, 1-tert-butyl-N-[(cis-4-{[4-(dimethylamino)pyriniidin-2-yl]amino}cyclohexyl)methyl]-5-methyl-1H-pyrazole-3-carboxamide]: 3 (Class 3 The value of percent of control at 10^−7 M was more than 60% or the value of IC50 was more than 200 nM.); `CN(C)c1ccnc(N[C@H]2CC[C@@H](CNC(=O)c3csc4ccccc34)CC2)n1` [compound 436]: 3 (Class 3 The value of percent of control at 10^−7 M was more than 60% or the value of IC50 was more than 200 nM.); `CN(C)c1ccnc(N[C@H]2CC[C@@H](CNC(=O)c3ccc(-c4ccccc4)cc3)CC2)n1` [compound 437]: 3 (Class 3 The value of percent of control at 10^−7 M was more than 60% or the value of IC50 was more than 200 nM.).

On to `CN(C)c1ccnc(N[C@H]2CC[C@@H](CNC(=O)c3ccccc3Br)CC2)n1` [compound 438], for which, under setting [2], the class is on record as 3 (Class 3 The value of percent of control at 10^−7 M was more than 60% or the value of IC50 was more than 200 nM.). Consider `CN(C)c1ccnc(N[C@H]2CC[C@@H](CNC(=O)c3c(Cl)cccc3Cl)CC2)n1` [compound 439], for which the class under setting [2] is recorded as 3 (Class 3 The value of percent of control at 10^−7 M was more than 60% or the value of IC50 was more than 200 nM.).

`CN(C)c1ccnc(N[C@H]2CC[C@@H](CNC(=O)c3ccccc3I)CC2)n1` [compound 440]: the class under setting [2] is 3 (Class 3 The value of percent of control at 10^−7 M was more than 60% or the value of IC50 was more than 200 nM.). Regarding `Cc1ccccc1C(=O)NC[C@H]1CC[C@@H](Nc2nccc(N(C)C)n2)CC1` [compound 441], the class under setting [2] is reported as 3 (Class 3 The value of percent of control at 10^−7 M was more than 60% or the value of IC50 was more than 200 nM.).

Consider `CN(C)c1ccnc(N[C@H]2CC[C@@H](CNC(=O)c3cccc(Cl)c3Cl)CC2)n1` [compound 442], for which the class under setting [2] is 3 (Class 3 The value of percent of control at 10^−7 M was more than 60% or the value of IC50 was more than 200 nM.).

Take `CN(C)c1ccnc(N[C@H]2CC[C@@H](CNC(=O)c3cc(F)ccc3Cl)CC2)n1` [compound 443]: the class under setting [2] is reported as 3 (Class 3 The value of percent of control at 10^−7 M was more than 60% or the value of IC50 was more than 200 nM.). Still for that read-out and setting: then `CN(C)c1ccnc(N[C@H]2CC[C@@H](CNC(=O)c3cccc4c3-c3ccccc3C4=O)CC2)n1` [compound 444, N-[(cis-4-{[4-(dimethylamino)pyrimidin-2-yl]amino}cyclohexyl)methyl]-9-oxo-9H-fluorene-4-carboxamide], with 2 (Class 2: The value of percent of control at 10^−7 M was from 40% to 60% or the value of IC′50 was from 50 nM to 200 nM.); and `CN(C)c1ccnc(N[C@H]2CC[C@@H](CNC(=O)c3c(F)ccc(F)c3F)CC2)n1` [compound 445], with 3 (Class 3 The value of percent of control at 10^−7 M was more than 60% or the value of IC50 was more than 200 nM.); and `CN(C)c1ccnc(N[C@H]2CC[C@@H](CNC(=O)c3cccc(F)c3F)CC2)n1` [compound 446], with 3 (Class 3 The value of percent of control at 10^−7 M was more than 60% or the value of IC50 was more than 200 nM.).
